From paper PMC6407917, “Identification of GSK3186899/DDD853651 as a Preclinical Development Candidate for the Treatment of Visceral Leishmaniasis” (Journal of Medicinal Chemistry, 2018)

Experiments:
Assay in all cases: biochemical
Design in all cases: species or system HEK293/K-562/placenta mixed human extract; Kinobeads chemoproteomic competition binding, quantified by TMT LC-MS/MS, dose response up to 20 uM
MAP3K1 = MAP3K1 (Homo sapiens, UniProt Q13233)
EGFR = EGFR (Homo sapiens, UniProt P00533)
KDR = KDR (Homo sapiens, UniProt P35968)
CDC37 = CDC37 (Homo sapiens, UniProt Q16543)
TAOK3 = TAOK3 (Homo sapiens, UniProt Q9H2K8)
Chain of TAOK3 (Q9H2K8 whole entry): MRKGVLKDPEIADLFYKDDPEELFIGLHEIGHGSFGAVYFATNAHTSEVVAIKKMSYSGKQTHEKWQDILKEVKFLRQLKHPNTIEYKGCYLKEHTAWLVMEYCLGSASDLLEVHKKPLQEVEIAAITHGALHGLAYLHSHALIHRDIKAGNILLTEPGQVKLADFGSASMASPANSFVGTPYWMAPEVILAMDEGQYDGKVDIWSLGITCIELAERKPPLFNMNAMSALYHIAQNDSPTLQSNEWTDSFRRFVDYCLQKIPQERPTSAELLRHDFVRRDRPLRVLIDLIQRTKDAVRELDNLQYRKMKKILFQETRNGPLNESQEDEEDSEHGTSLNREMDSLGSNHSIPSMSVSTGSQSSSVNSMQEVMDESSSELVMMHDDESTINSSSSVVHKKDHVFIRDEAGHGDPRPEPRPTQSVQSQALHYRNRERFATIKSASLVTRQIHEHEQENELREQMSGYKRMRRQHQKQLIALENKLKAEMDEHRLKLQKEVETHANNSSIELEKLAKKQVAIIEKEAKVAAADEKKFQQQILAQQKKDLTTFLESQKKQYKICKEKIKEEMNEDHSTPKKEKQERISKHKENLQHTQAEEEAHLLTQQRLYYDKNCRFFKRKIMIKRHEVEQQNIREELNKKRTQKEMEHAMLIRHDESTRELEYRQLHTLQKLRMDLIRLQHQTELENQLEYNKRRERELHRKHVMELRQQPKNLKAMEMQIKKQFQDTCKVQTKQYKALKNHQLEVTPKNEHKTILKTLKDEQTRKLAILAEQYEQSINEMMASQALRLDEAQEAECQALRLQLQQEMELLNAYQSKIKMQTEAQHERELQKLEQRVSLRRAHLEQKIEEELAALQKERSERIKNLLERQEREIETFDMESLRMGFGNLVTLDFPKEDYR

CSNK1D = CSNK1D (Homo sapiens, UniProt P48730)
EPHA2 = EPHA2 (Homo sapiens, UniProt P29317)
MKNK2 = MKNK2 (Homo sapiens, UniProt Q9HBH9)
MAP2K2 = MAP2K2 (Homo sapiens, UniProt P36507)
CSNK2B = CSNK2B (Homo sapiens, UniProt P67870)
Chain of CSNK2B (P67870 whole entry): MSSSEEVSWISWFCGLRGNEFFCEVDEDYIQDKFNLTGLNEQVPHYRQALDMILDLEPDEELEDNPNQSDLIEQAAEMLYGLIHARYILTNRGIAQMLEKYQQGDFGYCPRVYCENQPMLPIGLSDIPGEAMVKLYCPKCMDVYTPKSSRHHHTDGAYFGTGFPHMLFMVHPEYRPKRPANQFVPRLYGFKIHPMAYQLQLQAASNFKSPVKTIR

RIPK1 = RIPK1 (Homo sapiens, UniProt Q13546)
Chain of RIPK1 (Q13546 whole entry): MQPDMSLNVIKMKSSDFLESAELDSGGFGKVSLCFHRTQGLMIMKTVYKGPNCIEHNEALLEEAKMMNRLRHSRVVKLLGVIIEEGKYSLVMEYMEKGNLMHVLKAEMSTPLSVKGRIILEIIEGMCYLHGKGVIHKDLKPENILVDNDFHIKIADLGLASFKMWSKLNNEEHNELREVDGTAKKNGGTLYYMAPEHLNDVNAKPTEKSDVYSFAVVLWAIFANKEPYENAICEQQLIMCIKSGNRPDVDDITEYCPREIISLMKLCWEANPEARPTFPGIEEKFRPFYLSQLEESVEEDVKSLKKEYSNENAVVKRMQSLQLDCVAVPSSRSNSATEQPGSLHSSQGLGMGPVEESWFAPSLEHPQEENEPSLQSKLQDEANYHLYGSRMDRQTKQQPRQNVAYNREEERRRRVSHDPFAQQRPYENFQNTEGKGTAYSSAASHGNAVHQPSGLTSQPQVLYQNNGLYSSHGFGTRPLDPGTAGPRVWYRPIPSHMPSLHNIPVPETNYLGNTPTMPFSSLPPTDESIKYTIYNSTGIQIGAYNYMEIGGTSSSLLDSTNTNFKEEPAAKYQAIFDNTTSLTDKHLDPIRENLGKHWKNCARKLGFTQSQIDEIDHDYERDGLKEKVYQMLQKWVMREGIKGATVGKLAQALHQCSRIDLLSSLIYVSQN

AAK1 = AAK1 (Homo sapiens, UniProt Q2M2I8)
MAPK11 = MAPK11 (Homo sapiens, UniProt Q15759)
Chain of MAPK11 (Q15759 whole entry): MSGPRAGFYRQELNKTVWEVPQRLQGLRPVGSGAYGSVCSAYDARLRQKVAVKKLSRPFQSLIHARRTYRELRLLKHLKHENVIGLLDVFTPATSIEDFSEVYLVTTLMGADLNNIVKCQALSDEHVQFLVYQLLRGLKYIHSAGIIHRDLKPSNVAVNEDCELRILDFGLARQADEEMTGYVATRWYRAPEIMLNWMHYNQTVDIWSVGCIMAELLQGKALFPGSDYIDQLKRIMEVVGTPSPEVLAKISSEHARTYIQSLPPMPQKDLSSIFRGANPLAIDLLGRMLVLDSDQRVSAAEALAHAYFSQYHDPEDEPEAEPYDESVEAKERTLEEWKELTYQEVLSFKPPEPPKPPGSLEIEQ

DAPK1 = DAPK1 (Homo sapiens, UniProt P53355)
Chain of DAPK1 (P53355 whole entry): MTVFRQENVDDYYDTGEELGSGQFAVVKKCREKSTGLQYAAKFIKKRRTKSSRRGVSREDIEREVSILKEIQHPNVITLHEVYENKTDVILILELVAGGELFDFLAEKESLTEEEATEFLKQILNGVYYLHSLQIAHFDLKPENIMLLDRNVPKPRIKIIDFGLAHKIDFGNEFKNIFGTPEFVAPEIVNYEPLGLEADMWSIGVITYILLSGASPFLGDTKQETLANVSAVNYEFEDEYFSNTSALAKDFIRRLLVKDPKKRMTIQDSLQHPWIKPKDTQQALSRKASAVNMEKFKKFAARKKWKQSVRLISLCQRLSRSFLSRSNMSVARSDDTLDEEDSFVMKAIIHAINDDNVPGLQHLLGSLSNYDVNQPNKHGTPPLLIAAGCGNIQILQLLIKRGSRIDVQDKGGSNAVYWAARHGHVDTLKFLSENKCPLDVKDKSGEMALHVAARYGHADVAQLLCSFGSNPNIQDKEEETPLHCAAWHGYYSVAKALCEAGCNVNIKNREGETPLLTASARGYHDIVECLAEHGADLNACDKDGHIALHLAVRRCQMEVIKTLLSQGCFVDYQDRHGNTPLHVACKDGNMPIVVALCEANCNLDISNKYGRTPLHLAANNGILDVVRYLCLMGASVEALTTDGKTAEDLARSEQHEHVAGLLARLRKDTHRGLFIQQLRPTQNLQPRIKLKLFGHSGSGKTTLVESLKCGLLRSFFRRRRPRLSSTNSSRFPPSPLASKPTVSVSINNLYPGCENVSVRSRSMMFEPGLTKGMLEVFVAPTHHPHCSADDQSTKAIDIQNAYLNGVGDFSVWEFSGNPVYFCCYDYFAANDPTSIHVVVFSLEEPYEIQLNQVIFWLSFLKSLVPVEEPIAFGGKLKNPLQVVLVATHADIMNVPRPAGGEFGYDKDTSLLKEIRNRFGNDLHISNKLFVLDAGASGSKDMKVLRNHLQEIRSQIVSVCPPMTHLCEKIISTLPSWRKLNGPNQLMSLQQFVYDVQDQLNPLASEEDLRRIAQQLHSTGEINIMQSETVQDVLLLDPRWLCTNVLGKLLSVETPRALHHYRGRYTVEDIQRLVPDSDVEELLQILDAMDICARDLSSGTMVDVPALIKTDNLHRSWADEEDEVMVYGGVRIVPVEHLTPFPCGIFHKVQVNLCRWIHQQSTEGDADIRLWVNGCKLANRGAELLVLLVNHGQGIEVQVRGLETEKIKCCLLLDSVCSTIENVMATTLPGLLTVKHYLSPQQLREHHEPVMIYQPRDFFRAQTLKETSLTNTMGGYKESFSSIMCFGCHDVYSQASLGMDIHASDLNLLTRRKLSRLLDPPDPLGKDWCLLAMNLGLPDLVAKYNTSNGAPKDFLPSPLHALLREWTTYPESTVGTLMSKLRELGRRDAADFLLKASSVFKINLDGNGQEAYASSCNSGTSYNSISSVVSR

LATS2 = LATS2 (Homo sapiens, UniProt Q9NRM7)
OXSR1 = OXSR1 (Homo sapiens, UniProt O95747)
LYN = LYN (Homo sapiens, UniProt P07948)
PRKAG1 = PRKAG1 (Homo sapiens, UniProt P54619)
LRRK2 = LRRK2 (Homo sapiens, UniProt Q5S007)
MAST2 = MAST2 (Homo sapiens, UniProt Q6P0Q8)
STK16 = STK16 (Homo sapiens, UniProt O75716)

Chain of MAP3K1 (Q13233 whole entry): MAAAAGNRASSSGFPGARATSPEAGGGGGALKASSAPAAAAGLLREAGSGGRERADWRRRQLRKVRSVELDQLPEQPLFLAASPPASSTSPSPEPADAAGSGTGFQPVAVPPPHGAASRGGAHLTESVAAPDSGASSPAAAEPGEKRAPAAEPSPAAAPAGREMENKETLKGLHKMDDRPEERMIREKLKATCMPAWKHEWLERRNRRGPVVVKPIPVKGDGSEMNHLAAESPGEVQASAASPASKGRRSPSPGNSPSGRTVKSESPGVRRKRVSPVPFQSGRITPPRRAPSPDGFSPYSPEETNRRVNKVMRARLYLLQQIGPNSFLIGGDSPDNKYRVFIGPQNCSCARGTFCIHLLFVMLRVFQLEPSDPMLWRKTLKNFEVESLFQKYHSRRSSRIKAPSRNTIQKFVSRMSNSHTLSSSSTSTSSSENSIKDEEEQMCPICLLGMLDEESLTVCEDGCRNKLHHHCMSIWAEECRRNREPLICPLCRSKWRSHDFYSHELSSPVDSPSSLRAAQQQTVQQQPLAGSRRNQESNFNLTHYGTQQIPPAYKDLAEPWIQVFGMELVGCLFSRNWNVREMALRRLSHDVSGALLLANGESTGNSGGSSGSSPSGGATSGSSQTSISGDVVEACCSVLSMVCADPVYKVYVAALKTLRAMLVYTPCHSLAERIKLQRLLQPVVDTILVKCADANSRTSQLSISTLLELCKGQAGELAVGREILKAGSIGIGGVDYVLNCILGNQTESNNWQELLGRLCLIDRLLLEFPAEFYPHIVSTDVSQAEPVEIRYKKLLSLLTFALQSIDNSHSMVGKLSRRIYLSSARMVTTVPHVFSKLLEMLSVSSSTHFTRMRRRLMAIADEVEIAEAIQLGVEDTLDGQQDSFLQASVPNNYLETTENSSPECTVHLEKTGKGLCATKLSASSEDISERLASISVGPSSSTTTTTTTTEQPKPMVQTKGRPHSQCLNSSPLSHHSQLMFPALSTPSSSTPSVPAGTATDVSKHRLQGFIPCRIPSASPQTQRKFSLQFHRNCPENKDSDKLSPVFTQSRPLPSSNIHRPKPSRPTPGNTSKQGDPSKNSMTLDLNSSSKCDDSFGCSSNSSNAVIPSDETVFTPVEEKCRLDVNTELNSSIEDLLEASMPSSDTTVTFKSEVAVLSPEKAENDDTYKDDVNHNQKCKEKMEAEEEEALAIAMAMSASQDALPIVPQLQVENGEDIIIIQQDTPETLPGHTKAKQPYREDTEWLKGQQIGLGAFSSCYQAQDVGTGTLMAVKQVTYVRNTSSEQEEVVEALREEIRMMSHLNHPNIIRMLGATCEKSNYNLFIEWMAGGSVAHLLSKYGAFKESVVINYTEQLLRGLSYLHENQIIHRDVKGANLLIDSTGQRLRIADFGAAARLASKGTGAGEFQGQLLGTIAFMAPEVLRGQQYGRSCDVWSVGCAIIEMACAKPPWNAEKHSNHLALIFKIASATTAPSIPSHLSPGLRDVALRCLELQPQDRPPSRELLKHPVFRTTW

- IC50 (MAP3K1): ≥ 20 µM
- IC50 (EGFR): ≥ 20 µM
- IC50 (KDR): ≥ 20 µM
- IC50 (CDC37): ≥ 20 µM
- IC50 (TAOK3): 0.93 µM
- IC50 (CSNK1D): ≥ 20 µM
- IC50 (EPHA2): ≥ 20 µM
- IC50 (MKNK2): ≥ 20 µM
- IC50 (MAP2K2): ≥ 20 µM
- IC50 (CSNK2B): ≥ 20 µM
- IC50 (RIPK1): ≥ 20 µM
- IC50 (AAK1): ≥ 20 µM
- IC50 (MAPK11): ≥ 20 µM
- IC50 (DAPK1): ≥ 20 µM
- IC50 (LATS2): ≥ 20 µM
- IC50 (OXSR1): ≥ 20 µM
- IC50 (LYN): ≥ 20 µM
- IC50 (PRKAG1): ≥ 20 µM
- IC50 (LRRK2): ≥ 20 µM
- IC50 (MAST2): ≥ 20 µM
- IC50 (STK16): ≥ 20 µM
Compound: COc1ccccc1-c1n[nH]c2nc(N[C@H]3CC[C@H](NS(=O)(=O)CCC(F)(F)F)CC3)nc(OC)c12 [compound 31, 3,3,3-Trifluoro-N-(trans-4-((4-methoxy-3-(2-methoxyphenyl)-1H-pyrazolo[3,4-d]pyrimidin-6-yl)amino)cyclohexyl)propane-1-sulfonamide]
